Source: patent US11091447B2, “UBE2K modulators and methods for their use” (Berg LLC, priority 2020, dated 2021)

Tests used:
[1] = test system: K-562 tumor grafts; assay: Tumor growth inhibition in K-562 murine xenograft model; type: in vivo, Mouse (Mus musculus); conditions: bid., p.o., K-562 xenograft, SCID Bg mice
Description: K-562 cancer cell line sourced from American Type Culture Collection (ATCC), USA. Cells were grown in IMDM medium (Sigma, Cat #30-2005) supplemented with 10% FBS (Invitrogen, Cat #10438-026), and 1% penicillin streptomycin (Invitrogen, Cat #15140-122). To establish xenograft, the cells were harvested by trypsinization when they reach around 70 to 80% confluence and 5 million K-562 cells were suspended in 200 μL of serum-free medium and mixed at 1:1 ratio with matrigel before implanting subcutaneously into the dorsal right flank of SCID Bg mice using a 1 mL BD syringe attached to a 24-gauge needle.
K-562 tumor grafts were measured after 10 days of cell inoculation once they became palpable. When the average tumor volume reached around 85 mm^3, animals were dosed after randomization into different treatment groups keeping tumor volume and number of animals in such a way so that the average tumor volume of each group remained same across the groups.
Compounds were formulated in 0.5% CMC+0.1% Tween 80 and given for 12 consecutive days BID with 8 hour gaps.

[2] = test system: MIA PaCa-2 cells; assay: Cellular viability assay (Cell Titer Fluor); type: cell-based; conditions: Homo sapiens, MIA PaCa-2, 72 h, 72 hours incubation
Description: Cell viability were performed using the Cell Titer Fluor™ Assays (Promega G6080). MIA PaCa-2 cells are grown in DMEM media with 10% FBS, 1% Pen/Strep/Amphotericin B. Cells are trypsinized and counted using the Nexcelom cellometer. 5,000 cells/100 μl are plated per well in Greiner black/clear 96-well plates. Cells should be within 10 passages of stock vial for use in workflow. Three distinct lineages of these cells are cultured in parallel for multiple passages and 5 full plates of each lineage are seeded for one run. Small molecule compounds are provided as 100 mM stock solutions in DMSO. Dilution series plates are prepared using 1:3 dilution to achieve a 7 point concentration on a half log scale. After addition of compounds, cells are incubated 37° C., 5% CO2 for 72 hours.
For each test compound condition, triplicate technical replicates are used. For each reference compound, duplicate technical replicates are used. At the end of the 72-hour incubation, spent media is discarded. Then, 100 μl of GF-AFC diluted in DMEM (serum and phenol red-free) is added at 1:2000 concentration (5 μl/10 ml). Cells are incubated with reaction buffer for 1 h at 37° C. Fluorescence is then read on the plate reader with excitation wavelength of 390 nm and emission wavelength of 505 nm. All raw data are analyzed on Microsoft Excel 2010 and normalized to the DMSO vehicle control. Relative results are copied into GraphPad Prism for non-linear regression analysis and determination of IC50 and other dose curve parameters (min, max, Hill slope, etc.) using the log (inhibitor) vs. response equation. Values are as follows: A represents an IC50 of <[…], B represents an IC50 of 1 mM to 10 mM, C represents an IC50 of >10 mM.

[3] = test system: MV.4.11 cell (B myelomonocytic leukemia) line derived xenograft; assay: Anti-tumor efficacy in MV.4.11 cell line derived xenograft model; type: in vivo; conditions: MV.4.11 xenograft, nude mice
Description: Nude mice were implanted with 5×10^6 cells MV.4.11 cells subcutaneously in the right flank region. Mice were randomized into 3 groups (8 mice each) on day 12 post cells implantation. Vehicle control was administered with formulation of test compound and treatment group was administered with compound 131 at doses 75 and 150 mg/kg orally as a suspension in 0.1% Tween-80+0.5% CMC (carboxymethyl cellulose) twice daily (b.i.d) for 24 days. Tumor measurements and body weight were recorded thrice weekly during the study period till study completion (day 24).

IC50 [2]	Structure (SMILES)	% Tumor Growth Inhibition (TGI) on day 3 ([1]; 75 mg/kg/dose)	% Tumor Growth Inhibition (TGI) on day 5 ([1]; 75 mg/kg/dose)	% Tumor Growth Inhibition (TGI) on day 8 ([1]; 75 mg/kg/dose)	% Tumor Growth Inhibition (TGI) on day 10 ([1]; 75 mg/kg/dose)	% Tumor Growth Inhibition (TGI) on day 12 ([1]; 75 mg/kg/dose)	% Tumor Growth Inhibition (TGI) on day 3 ([1]; 200 mg/kg/dose)	% Tumor Growth Inhibition (TGI) on day 5 ([1]; 200 mg/kg/dose)	% Tumor Growth Inhibition (TGI) on day 8 ([1]; 200 mg/kg/dose)	% Tumor Growth Inhibition (TGI) on day 10 ([1]; 200 mg/kg/dose)	% Tumor Growth Inhibition (TGI) on day 12 ([1]; 200 mg/kg/dose)	% Tumor Growth Inhibition (TGI) on day 3 ([1]; 25 mg/kg/dose)	% Tumor Growth Inhibition (TGI) on day 5 ([1]; 25 mg/kg/dose)	% Tumor Growth Inhibition (TGI) on day 8 ([1]; 25 mg/kg/dose)	% Tumor Growth Inhibition (TGI) on day 10 ([1]; 25 mg/kg/dose)	% Tumor Growth Inhibition (TGI) on day 12 ([1]; 25 mg/kg/dose)	tumor growth inhibition ([3]; 75 mg/kg orally twice daily (b.i.d) for 24 days)	tumor growth inhibition ([3]; 150 mg/kg orally twice daily (b.i.d) for 24 days)
< 1000 nM	COc1ccccc1-c1nc(CNC(=O)c2ccccc2OC(F)F)n[nH]1 [Compound 126, 2-(difluoromethoxy)-N-((5-(2-methoxyphenyl)-1H-1,2,4-triazol-3-yl)methyl) benzamide]	41%	32%	27%	27%	36%	55%	51%	51%	43%	44%	–	–	–	–	–	–	–
< 1000 nM	COc1ccc(F)cc1-c1nc(CNC(=O)c2cc(F)ccc2OC(F)(F)F)n[nH]1 [Compound 133]	47%	56%	61%	60%	64%	–	–	–	–	–	43%	37%	48%	45%	43%	–	–
< 1000 nM	COc1ccc(F)cc1-c1nc(CNC(=O)c2cccc3c2OC(F)(F)O3)n[nH]1 [Compound 131]	–	–	–	–	–	–	–	–	–	–	–	–	–	–	–	73.6%	86.3%
